From paper PMC6176658, “Experimentally Validated Pharmacoinformatics Approach to Predict hERG Inhibition Potential of New Chemical Entities” (Frontiers in Pharmacology, 2018) come the findings set out here.

This experiment has as its target T1, hERG (Kv11.1) potassium channel (Homo sapiens, UniProt Q12809).
T1 construct: gene KCNH2
Kind of experiment: cell-based.

Structures are written as SMILES.

T1 sequence (Q12809 whole entry): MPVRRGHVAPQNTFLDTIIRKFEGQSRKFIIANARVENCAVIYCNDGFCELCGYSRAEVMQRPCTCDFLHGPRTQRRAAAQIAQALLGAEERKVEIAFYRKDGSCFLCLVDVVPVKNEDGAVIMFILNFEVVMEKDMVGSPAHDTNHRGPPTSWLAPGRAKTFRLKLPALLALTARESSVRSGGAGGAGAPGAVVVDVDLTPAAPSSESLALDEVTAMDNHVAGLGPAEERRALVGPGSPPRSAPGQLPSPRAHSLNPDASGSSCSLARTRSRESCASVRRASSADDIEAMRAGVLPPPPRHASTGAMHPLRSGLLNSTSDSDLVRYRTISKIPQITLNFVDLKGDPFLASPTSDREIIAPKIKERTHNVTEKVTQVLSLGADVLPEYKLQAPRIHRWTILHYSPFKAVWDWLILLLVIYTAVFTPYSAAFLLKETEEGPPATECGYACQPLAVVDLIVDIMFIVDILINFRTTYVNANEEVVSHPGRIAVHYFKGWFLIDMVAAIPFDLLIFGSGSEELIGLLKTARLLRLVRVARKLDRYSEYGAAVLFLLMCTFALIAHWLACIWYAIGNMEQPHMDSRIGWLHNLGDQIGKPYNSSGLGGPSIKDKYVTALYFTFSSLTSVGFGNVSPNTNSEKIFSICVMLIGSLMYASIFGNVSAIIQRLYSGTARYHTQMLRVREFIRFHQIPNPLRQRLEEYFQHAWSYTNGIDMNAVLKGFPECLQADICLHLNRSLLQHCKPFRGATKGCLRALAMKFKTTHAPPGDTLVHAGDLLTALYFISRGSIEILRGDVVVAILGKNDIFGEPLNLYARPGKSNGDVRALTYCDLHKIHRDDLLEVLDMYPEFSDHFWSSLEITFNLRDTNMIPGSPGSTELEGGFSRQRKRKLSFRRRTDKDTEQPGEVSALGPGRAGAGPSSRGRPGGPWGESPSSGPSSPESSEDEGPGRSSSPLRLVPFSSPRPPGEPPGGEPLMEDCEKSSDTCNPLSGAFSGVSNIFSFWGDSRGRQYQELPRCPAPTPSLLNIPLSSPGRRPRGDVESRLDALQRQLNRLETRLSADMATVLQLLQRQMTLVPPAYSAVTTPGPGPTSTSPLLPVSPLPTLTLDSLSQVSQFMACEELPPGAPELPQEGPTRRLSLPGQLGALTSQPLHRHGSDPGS

What is called IC50 is the concentration at which inhibition is half-maximal. Read a low IC50 as inhibition by little substance. `CCOC(=O)c1cc(C)n(-c2ccccc2)c1C` [OSM-S-31] showed an IC50 of 3.89 µM. In other words, the single-digit micromolar range.
